# PubChem BioAssay (NCI)
#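 Following 48 hours of exposure in 96-well plates, responses at five concentrations were used to interpolate endpoints linearly. At the GI50, growth is halved. TGI denotes the concentration required for complete inhibition of growth.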
# Legend:
# Assay in all cases: NCI anticancer screen, dose series, 48 h
# HS 578T breast = test system: HS 578T breast
# UO-31 renal = test system: UO-31 renal
# SK-MEL-28 melanoma = test system: SK-MEL-28 melanoma
# NCI-H226 lung = test system: NCI-H226 lung
# RXF 393 renal = test system: RXF 393 renal
# SF-539 CNS = test system: SF-539 CNS
# U251 CNS = test system: U251 CNS
# NCI-H23 lung = test system: NCI-H23 lung
# UACC-257 melanoma = test system: UACC-257 melanoma
# K-562 leukemia = test system: K-562 leukemia
# SK-MEL-2 melanoma = test system: SK-MEL-2 melanoma
# EKVX NSCLC = test system: EKVX NSCLC
# CCRF-CEM leukemia = test system: CCRF-CEM leukemia
# SN12C renal = test system: SN12C renal
# SF-268 CNS = test system: SF-268 CNS
# PC-3 prostate = test system: PC-3 prostate
# SNB-75 CNS = test system: SNB-75 CNS
# SNB-19 CNS = test system: SNB-19 CNS
# A549 NSCLC = test system: A549 NSCLC
# LOX IMVI melanoma = test system: LOX IMVI melanoma
# HCT-15 colon = test system: HCT-15 colon
# MALME-3M melanoma = test system: MALME-3M melanoma
# OVCAR-3 ovarian = test system: OVCAR-3 ovarian
# HL-60(TB) leukemia = test system: HL-60(TB) leukemia
# HOP-92 NSCLC = test system: HOP-92 NSCLC
# OVCAR-8 ovarian = test system: OVCAR-8 ovarian
# IGROV1 ovarian = test system: IGROV1 ovarian
# SK-MEL-5 melanoma = test system: SK-MEL-5 melanoma
# SF-295 CNS = test system: SF-295 CNS
# OVCAR-5 ovarian = test system: OVCAR-5 ovarian
# COLO 205 colon = test system: COLO 205 colon
# A498 renal = test system: A498 renal
# DU-145 prostate = test system: DU-145 prostate
# NCI/ADR-RES ovarian = test system: NCI/ADR-RES ovarian
# T-47D breast = test system: T-47D breast
# SW-620 colon = test system: SW-620 colon
# 786-0 renal = test system: 786-0 renal
# RPMI-8226 leukemia = test system: RPMI-8226 leukemia
# UACC-62 melanoma = test system: UACC-62 melanoma
# MOLT-4 leukemia = test system: MOLT-4 leukemia
# TK-10 renal = test system: TK-10 renal
# CAKI-1 renal = test system: CAKI-1 renal
# KM12 colon = test system: KM12 colon
# BT-549 breast = test system: BT-549 breast
# ACHN renal = test system: ACHN renal
# NCI-H460 lung = test system: NCI-H460 lung
# SK-OV-3 ovarian = test system: SK-OV-3 ovarian
# MDA-MB-435 = test system: MDA-MB-435
# HOP-62 NSCLC = test system: HOP-62 NSCLC
# M14 melanoma = test system: M14 melanoma
# MDA-MB-231 breast = test system: MDA-MB-231 breast
# OVCAR-4 ovarian = test system: OVCAR-4 ovarian
structure (smiles),measurement,setting,value
O=[N+]([O-])/C=C\c1ccc(Cl)c(Cl)c1,GI50,HS 578T breast,2.42 µM
same,TGI,HS 578T breast,7.6 µM
same,GI50,UO-31 renal,1.08 µM
same,TGI,UO-31 renal,2.33 µM
same,GI50,SK-MEL-28 melanoma,2.48 µM
same,TGI,SK-MEL-28 melanoma,6.54 µM
same,GI50,NCI-H226 lung,12 µM
same,TGI,NCI-H226 lung,27.9 µM
same,GI50,RXF 393 renal,1.68 µM
same,TGI,RXF 393 renal,3.11 µM
same,GI50,SF-539 CNS,3.83 µM
same,TGI,SF-539 CNS,18.2 µM
same,GI50,U251 CNS,0.916 µM
same,TGI,U251 CNS,2.14 µM
same,GI50,NCI-H23 lung,1.63 µM
same,TGI,NCI-H23 lung,3.31 µM
same,GI50,UACC-257 melanoma,1.4 µM
same,TGI,UACC-257 melanoma,2.89 µM
same,GI50,K-562 leukemia,0.379 µM
same,TGI,K-562 leukemia,5.08 µM
same,GI50,SK-MEL-2 melanoma,2.56 µM
same,TGI,SK-MEL-2 melanoma,7.61 µM
same,GI50,EKVX NSCLC,4.01 µM
same,TGI,EKVX NSCLC,17.5 µM
same,TGI,CCRF-CEM leukemia,4.75 µM
same,GI50,SN12C renal,4.31 µM
same,TGI,SN12C renal,62.5 µM
same,GI50,SF-268 CNS,2.42 µM
same,TGI,SF-268 CNS,6.97 µM
same,GI50,PC-3 prostate,1.24 µM
same,TGI,PC-3 prostate,3.93 µM
same,GI50,SNB-75 CNS,4.47 µM
same,TGI,SNB-75 CNS,17.5 µM
same,GI50,SNB-19 CNS,3.77 µM
same,TGI,SNB-19 CNS,16.7 µM
same,GI50,A549 NSCLC,2.37 µM
same,TGI,A549 NSCLC,5.43 µM
same,GI50,LOX IMVI melanoma,0.412 µM
same,TGI,LOX IMVI melanoma,1.73 µM
same,GI50,HCT-15 colon,3.23 µM
same,TGI,HCT-15 colon,17 µM
same,GI50,MALME-3M melanoma,1.46 µM
same,TGI,MALME-3M melanoma,6.05 µM
same,GI50,OVCAR-3 ovarian,1.96 µM
same,TGI,OVCAR-3 ovarian,3.94 µM
same,GI50,HL-60(TB) leukemia,2.15 µM
same,TGI,HL-60(TB) leukemia,10.5 µM
same,GI50,HOP-92 NSCLC,1.87 µM
same,TGI,HOP-92 NSCLC,5.01 µM
same,GI50,OVCAR-8 ovarian,1.94 µM
same,TGI,OVCAR-8 ovarian,4.16 µM
same,GI50,IGROV1 ovarian,0.602 µM
same,TGI,IGROV1 ovarian,2.02 µM
same,GI50,SK-MEL-5 melanoma,3.57 µM
same,TGI,SK-MEL-5 melanoma,14 µM
same,GI50,SF-295 CNS,1.83 µM
same,TGI,SF-295 CNS,3.73 µM
same,GI50,OVCAR-5 ovarian,8.89 µM
same,TGI,OVCAR-5 ovarian,31.3 µM
same,GI50,COLO 205 colon,3.48 µM
same,TGI,COLO 205 colon,12.8 µM
same,GI50,A498 renal,0.667 µM
same,TGI,A498 renal,3.81 µM
same,GI50,DU-145 prostate,1.81 µM
same,TGI,DU-145 prostate,4.15 µM
same,GI50,NCI/ADR-RES ovarian,2.18 µM
same,TGI,NCI/ADR-RES ovarian,4.78 µM
same,GI50,T-47D breast,2.82 µM
same,TGI,T-47D breast,13.9 µM
same,GI50,SW-620 colon,1.3 µM
same,TGI,SW-620 colon,3.3 µM
same,GI50,786-0 renal,1.89 µM
same,TGI,786-0 renal,3.56 µM
same,GI50,RPMI-8226 leukemia,0.249 µM
same,TGI,RPMI-8226 leukemia,0.624 µM
same,GI50,UACC-62 melanoma,10.9 µM
same,TGI,UACC-62 melanoma,30.1 µM
same,GI50,MOLT-4 leukemia,1.55 µM
same,TGI,MOLT-4 leukemia,6.9 µM
same,GI50,TK-10 renal,3.48 µM
same,TGI,TK-10 renal,12 µM
same,GI50,CAKI-1 renal,1.32 µM
same,TGI,CAKI-1 renal,2.88 µM
same,GI50,KM12 colon,2.08 µM
same,TGI,KM12 colon,4.56 µM
same,GI50,BT-549 breast,4.15 µM
same,TGI,BT-549 breast,14.9 µM
same,GI50,ACHN renal,3.47 µM
same,TGI,ACHN renal,13.3 µM
same,GI50,NCI-H460 lung,3.64 µM
same,TGI,NCI-H460 lung,25.1 µM
same,GI50,SK-OV-3 ovarian,14.4 µM
same,TGI,SK-OV-3 ovarian,27.4 µM
same,GI50,MDA-MB-435,1.27 µM
same,TGI,MDA-MB-435,2.86 µM
same,GI50,HOP-62 NSCLC,2.88 µM
same,TGI,HOP-62 NSCLC,9.57 µM
same,GI50,M14 melanoma,1.63 µM
same,TGI,M14 melanoma,3.29 µM
same,GI50,MDA-MB-231 breast,5.73 µM
same,TGI,MDA-MB-231 breast,23.2 µM
same,GI50,OVCAR-4 ovarian,11.5 µM
same,TGI,OVCAR-4 ovarian,24 µM
